# Measurements as given in US5880152A, “Butyrate prodrugs derived from lactic acid” (Vertex Pharmaceuticals, Inc., priority 1997, dated 1999).
# Like-named read-outs stand apart in the source and are kept apart here.
# Columns and labels:
# [1] = Triglycerides and ALT in the efficacy study; conditions: three groups, prior to or during the two phases
# γ globin chain = experiment: Efficacy study in anemic rhesus monkeys: % γ globin chain (HPLC); format: in vivo, rhesus monkey (anemic)
# Description: (§1) Fetal hemoglobin cells (F cells), Hemoglobin F level in total Hemoglobin (% Hb F) and % γ globin chain levels were monitored before and after each of the two phases. % F cells were measured according to the protocol described in Betke et al, Blut., 4, pp. 241-9 (1958). % Hb F and % γ globin chain synthesis were measured using High Performance Liquid Chromatography (HPLC) according to the protocol described in Huisman, J. Chromagtogr., 418, pp. 277 (1987)
# [2] = tested on: Fetal hemoglobin cells (F cells); experiment: Efficacy study in anemic rhesus monkeys: % F cells; format: in vivo, rhesus monkey (anemic)
# Description: Each group was studied in two phases, as shown below.
# Phase I of the efficacy study.
# I 2 Hydroxyurea 50 mg/kg/day
# Phase II of the efficacy study.
# Hemoglobin F = experiment: Efficacy study in anemic rhesus monkeys: % Hb F (HPLC); format: in vivo, rhesus monkey (anemic)
# Description: as §1
# [3] = in vivo; cited from earlier work
# [4] = rhesus monkey, in vivo
# fetal hemoglobin = conditions: sickle cell anemia patients; cited from earlier work
# [5] = tested on: colorectal carcinoma cell lines; conditions: cited from earlier work
# [6] = tested on: retinoblastoma cell lines; conditions: cited from earlier work
# [7] = tested on: urokinase plasminogen activator and its receptor mRNA; conditions: colon cancer cell lines; cited from earlier work
# pancreatic cancel cells = conditions: pancreatic cancer cells; cited from earlier work
# tumor, leukemia = conditions: mice; cited from earlier work
# leukemia = conditions: cited from earlier work
# [8] = tested on: Cultured Erythroleukemic Cells; conditions: in vitro; cited from earlier work
structure (smiles),measurement,setting,value
CCCC(=O)O[C@@H](C)C(=O)OCC [Compound IIIc],levels of ALT,[1],no detectable difference
same,levels of the triglycerides,[1],no detectable difference
same,change in γ-globin chain levels,γ globin chain; Groups II and III,no measurable change
same,change in % F cells,[2]; Groups II and III,small but significant increase
same,change in HbF,Hemoglobin F; Groups II and III,no measurable change
"NC(=O)NO [Hydroxyurea, hydroxyurea]",change in % γ-globin chain levels,γ globin chain; Group I,measurable increase
same,% F cell count,"[2]; animal 1, group I, end of Phase I (hydroxyurea 50 mg/kg/day, 5 weeks), before Phase I 8-10",25%
same,change in % Hb F,Hemoglobin F; Group I,measurable increase
same,toxicity,[3],potentially limited by myelotoxicity and the risk of carcinogenesis
same,levels of ALT,[4],no detectable difference
same,levels of the triglycerides,[4],no detectable difference
same,fetal hemoglobin production,fetal hemoglobin,stimulates fetal hemoglobin production
same,sickling crisis,fetal hemoglobin,reduces sickling crisis
CCCC(=O)[O-].[Na+] [Sodium butyrate],apoptosis,[5],induce apoptosis
same,apoptosis,[6],induce apoptosis
same,urokinase plasminogen activator and its receptor mRNA expression,[7],inhibit
same,antigen expression,pancreatic cancel cells,modify antigen expression
CCCC(=O)O [arginine butyrate],anti-tumor and anti-leukemia effects,"tumor, leukemia",exert anti-tumor and anti-leukemia effects in mice
CCCC(=O)O [butyric acid],"effect in leukemia patients, by inducing cell differentiation",leukemia,promising effects
same,cell differentiation,[8],induces cell differentiation
